Assay results as given in PubChem BioAssay (NCI).
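Values below derive from 48-hour exposures of cells grown in 96-well plates, with endpoints linearly interpolated between the two concentrations bracketing the appropriate inhibition level. GI50 = concentration required for 50% inhibition of growth. At the TGI there is no net growth.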

Columns and labels:
Assay in all cases: NCI-60 cell line screen, 48 h
CAKI-1 renal = system: CAKI-1 renal
HOP-62 NSCLC = system: HOP-62 NSCLC
MOLT-4 leukemia = system: MOLT-4 leukemia
OVCAR-8 ovarian = system: OVCAR-8 ovarian
PC-3 prostate = system: PC-3 prostate
SK-OV-3 ovarian = system: SK-OV-3 ovarian
SNB-75 CNS = system: SNB-75 CNS
EKVX NSCLC = system: EKVX NSCLC

| Compound | GI50 (CAKI-1 renal) [µM] | TGI (CAKI-1 renal) [µM] | GI50 (HOP-62 NSCLC) [µM] | TGI (HOP-62 NSCLC) [µM] | GI50 (MOLT-4 leukemia) [µM] | TGI (MOLT-4 leukemia) [µM] | GI50 (OVCAR-8 ovarian) [µM] | TGI (OVCAR-8 ovarian) [µM] | GI50 (PC-3 prostate) [µM] | TGI (PC-3 prostate) [µM] | GI50 (SK-OV-3 ovarian) [µM] | TGI (SK-OV-3 ovarian) [µM] | GI50 (SNB-75 CNS) [µM] | TGI (SNB-75 CNS) [µM] | TGI (EKVX NSCLC) [µM] | GI50 (EKVX NSCLC) [µM] |
| --- | --- | --- | --- | --- | --- | --- | --- | --- | --- | --- | --- | --- | --- | --- | --- | --- |
| N#C/C(=C1C=C/C(=N\O)C(Cl)=C\1)c1ccccc1 | 1.68 | 21.3 | 1.91 | 13 | 2.91 | 9.02 | 2.71 | 9.23 | 0.688 | 11.7 | 3.77 | 14.4 | 3.5 | 20.5 | – | – |
| O=C(O)CP(=O)(O)O | – | > 100 | – | > 100 | – | > 100 | – | > 100 | – | > 100 | – | > 100 | – | > 100 | > 100 | – |
| O=C(O)c1ccccc1-c1ccccc1C(=O)Nc1ccc2c(c1)[nH]c(=O)c1ccccc12 | – | > 100 | – | > 100 | – | > 100 | – | > 100 | – | > 100 | – | > 100 | – | > 100 | > 100 | – |
| N=c1n(Cc2ccccc2)c(N)cc(=O)n1Cc1ccccc1 | 2.94 | 16.6 | 1.35 | 2.68 | 1.24 | 5.38 | 3.18 | 11.4 | 2.74 | 19.9 | 2.99 | 8.44 | 3.08 | 16.1 | 5.42 | 2.12 |
| O=S(=O)(CCNCc1ccc(-c2ccc3ncnc(Nc4ccc(OCc5cccc(F)c5)c(Cl)c4)c3c2)o1)c1ccccc1 | 6.05 | > 25 | > 25 | > 25 | > 25 | > 25 | > 25 | > 25 | > 25 | > 25 | 0.349 | > 25 | > 25 | > 25 | > 25 | 3.44 |
| Clc1ccc(C2=NN[C@H](c3cn(-c4ccccc4)nc3-c3ccccc3)C2)cc1 | 10.4 | 44.9 | 2.31 | 5.76 | 19.6 | > 100 | 2.74 | 8.29 | 3.68 | 14.6 | 2.74 | 8.75 | 2.15 | 5.29 | 18.8 | 3.16 |
| S=C(c1ccc2c(c1)OCO2)N1CCN(c2cccc(Cl)c2)CC1 | – | > 100 | 3.27 | > 59.2 | 2.28 | > 55.8 | 0.975 | 7.21 | 4.08 | > 100 | 2.91 | > 93.9 | 0.572 | > 27.4 | > 100 | 4.52 |
| CS(=O)(=O)c1ccc(Oc2cc(F)cc(C#N)c2)c2c1[C@H](O)C(F)(F)C2 | > 100 | > 100 | > 100 | > 100 | > 100 | > 100 | > 100 | > 100 | > 100 | > 100 | > 100 | > 100 | > 100 | > 100 | > 100 | > 100 |
| Cc1ccc(NC2=C(Cl)C(=O)N(Cc3ccccc3)C2=O)cc1Cl | 5.92 | 26 | 12.6 | 25.2 | 1.71 | 6.81 | 2.32 | 9.93 | 1.99 | 8.84 | 19.4 | > 100 | – | – | 28.9 | 14.1 |
| COc1ccc(-c2nc(N3CCOCC3)c3sc(CN(C)c4ncc(C(=O)NO)cn4)cc3n2)cn1 | 0.0176 | 0.0436 | < 0.0106 | 0.123 | – | – | < 0.01 | 0.222 | < 0.01 | 0.112 | – | – | < 0.01 | 0.152 | – | – |
| O=C(NC1CCCCC1)NS(=O)(=O)c1ccc(-n2nc3c(c2-c2ccc(Cl)cc2)Cc2ccccc2-3)cc1 | 4.52 | 19.3 | 35.8 | > 100 | 2.77 | 7.28 | 11.9 | 49.6 | 6.28 | 24.4 | 31.6 | > 100 | 27.6 | > 100 | 37.7 | 14.2 |
| Oc1ccc(-c2cn3cc(Cl)sc3n2)cc1 | 41.5 | > 100 | > 100 | > 100 | 16.5 | 34.3 | 56.3 | > 100 | 15.9 | 46.8 | – | – | – | – | > 100 | 47.6 |
| C/C(=C\CCc1ccsc1)CC/C=C(\C)CCCN1CCC(CO)CC1 | 2.61 | 9.22 | 1.89 | 3.63 | 2.3 | 5.8 | 3.02 | 12.8 | – | – | 5.15 | 18.4 | 1.69 | 4.56 | – | – |
| CCCC(=O)Nc1ccc2c(c1)CN1C(=O)c3ccccc3C1=N2 | – | > 100 | – | > 100 | – | > 100 | – | > 100 | – | > 100 | – | > 100 | – | > 100 | – | – |
| CCN(CC)CCCCNc1ncc2cc(-c3cc(OC)cc(OC)c3)c(NC(=O)NC(C)(C)C)nc2n1 | 3.99 | 17 | 12.1 | 27.2 | 3.66 | 19.4 | 5.53 | 26.6 | 7.3 | 26 | 4.91 | 18.2 | 0.372 | 13.1 | – | – |
| COc1ccc2cc(Cn3cc[n+](Cc4ccc5ccccc5c4)c3)ccc2c1 | – | – | 4.23 | 20.9 | 2.31 | 7.62 | 3.26 | 13.1 | 2.13 | 9.17 | 3.19 | 12.6 | 1.39 | 4.19 | 15.5 | 3.71 |
| Cc1cc(C)c2nc3nc(C)cc(C)c3c(N)c2c1 | 1.83 | 6.12 | 5.26 | 25.7 | 4.7 | 26.6 | 4.02 | > 100 | – | – | 4.1 | 23.5 | 4.86 | 18.3 | 43 | 4.76 |
